# In patent US20060223819A1, “Quinoline Derivatives as NK-3 Antagonists” (GlaxoSmithKline S.P.A. & Laboratoire, priority 2000, published 2006):
# Structures can show the parent of a compound that is named as a salt.
row,SMILES,melting point [°C]
1,"C[C@@H](NC(=O)c1c(CN2CCNCC2)c(-c2ccccc2)nc2ccccc12)C1CCCCC1 [Example 5, 2-Phenyl-3-piperazin-1-ylmethyl-quinoline-4-carboxylic acid((R)-1-cyclohexyl-ethyl)-amide]",118 to 120
2,"C[C@H](NC(=O)c1c(CN2CCN(Cc3ccccc3)C(=O)C2)c(-c2ccccc2)nc2ccccc12)C1CCCCC1 [Example 33, 3-(4-Benzyl-3-oxopiperazin-1-ylmethyl)-2-phenylquinoline-4-carboxylic acid ((S)-1-cyclohexylethyl)-amide]",181
3,"C[C@H](NC(=O)c1c(CN2CCNC(=O)C2)c(-c2cccs2)nc2ccccc12)C1CCCCC1 [Example 41, 3-(3-Oxo-piperazin-1-ylmethyl)-2-thiophen-2-yl-quinoline-4-carboxylic acid ((S)-1-cyclohexylethyl)-amide]",225 to 230
4,"C[C@H](NC(=O)c1c(CN2CCNC(=O)C2)c(-c2ccccc2)nc2cc3c(cc12)OCCO3)C1CCCCC1 [Example 38, 8-(3-Oxo-piperazin-1-ylmethyl)-7-phenyl-2,3-dihydro-[1,4]dioxino[2,3-g]quinoline-9-carboxylic acid ((S)-1-cyclohexyl-ethyl)-amide]",144 to 145
5,"CC(C)[C@H](NC(=O)c1c(CN2CCNC(=O)C2)c(-c2ccccc2)nc2ccccc12)c1ccccc1 [Example 42, 3-(3-Oxo-piperazin-1-ylmethyl)-2-phenyl-quinoline-4-carboxylic acid ((S)-2-methyl-1-phenyl-propyl)-amide]",137
6,"CCCN1CCN(Cc2c(-c3ccccc3)nc3ccccc3c2C(=O)N[C@@H](C)C2CCCCC2)CC1=O [Example 36, 3-(3-Oxo-4-propyl-piperazin-1-ylmethyl)-2-phenyl-quinoline-4-carboxylic acid ((S)-1-cyclohexyl-ethyl)-amide]",150
7,"CC(C)[C@H](NC(=O)c1c(CN2CCN(CC(C(=O)O)c3ccccc3)CC2)c(-c2ccccc2)nc2ccccc12)c1ccccc1 (stereo partly drawn) [Example 16, 3-{4-[4-((S)-2-Methyl-1-phenyl-propylcarbamoyl)-2-phenyl-quinolin-3-ylmethyl]-piperazin-1-yl}-2-phenyl-propionic acid]",156 to 158
8,"CC(C)[C@H](NC(=O)c1c(CN2CCN(/C(=C/[N+](=O)[O-])N3CCCC3)CC2)c(-c2ccccc2)nc2ccccc12)c1ccccc1 [Example 13, 3-[4-(2-Nitro-1-pyrrolidin-1-yl-vinyl)-piperazin-1-ylmethyl]-2-phenyl-quinoline-4-carboxylic acid ((S)-2-methyl-1-phenyl-propyl)-amide]",170 to 175
9,"C[C@H](NC(=O)c1c(CN2CCN(/C(=C/[N+](=O)[O-])N3CCCC3)CC2)c(-c2ccccc2)nc2ccccc12)c1ccccc1 [Example 12, 3-[4-(2-Nitro-1-pyrrolidin-1-yl-vinyl)-piperazin-1-ylmethyl]-2-phenyl-quinoline-4-carboxylic acid ((S)-1-phenyl-ethyl)-amide]",164 to 165
10,"C[C@H](NC(=O)c1c(CN2CCNCC2)c(-c2ccccc2)nc2cc3c(cc12)OCCO3)C1CCCCC1 [Example 9, 7-Phenyl-8-piperazin-1-ylmethyl-2,3-dihydro-[1,4]dioxino[2,3-g]quinoline-9-carboxylic acid ((S)-1-cyclohexyl-ethyl)-amide]",135 to 137
11,"C[C@H](NC(=O)c1c(CN2CCN(CCO)C(=O)C2)c(-c2ccccc2)nc2ccccc12)C1CCCCC1 (as salt: hydrochloride) [Example 37, 3-[4-(2-Hydroxyethyl)-3-oxopiperazin-1-ylmethyl]-2-phenylquinoline-4-carboxylic acid ((S)-1-cyclohexyl-ethyl)-amide dihydrochloride]",171 to 173
12,"CC(CN1CCN(Cc2c(-c3ccccc3)nc3ccccc3c2C(=O)N[C@@H](C)c2ccccc2)CC1)C(=O)O (stereo partly drawn) [Example 14, 2-Methyl-3-{4-[2-phenyl-4-((S)-1-phenyl-ethylcarbamoyl)-quinolin-3-ylmethyl]-piperazin-1-yl}-propionic acid]",137 to 138
